According to US6620828B2, “Thiazole compounds and pharmaceutical compositions for inhibiting protein kinases and methods for their use” (Agouron Pharmaceuticals, Inc., priority 1999, dated 2003):
Where two headings read alike, the source gives them in different places.

Test system: human umbilical vein endothelial cells (HUVEC)
Assay: HUVEC proliferation assay
Format: cell-based
Conditions: for inhibition at 0.001 µM / inhibition at 0.01 µM / inhibition at 0.05 µM / inhibition at 0.15 µM: Homo sapiens, HUVEC; for inhibition at 0.001 µM: 1 nM; for inhibition at 0.01 µM: 10 nM; for inhibition at 0.05 µM: 50 nM
Outline: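 Exponentially growing HUVEC were serum-starved 24 h (F12K + 1% FBS), pre-treated 1 h with compound (0.1% DMSO final), then stimulated with 6 ng/ml VEGF. Proliferation was read 72 h later by MTT reduction (A595). IC50 came from seven 0.5-log concentrations in triplicate; screens gave % inhibition relative to VEGF-only and starved wells.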

[1] = Table II screening results, crude combinatorial amide library
[2] = Table II screening results, crude combinatorial amide library, read-out: % inhibition @ 10 nM
[3] = Inhibition of HUVEC Proliferation, crude combinatorial urea library, read-out: % inhibition @ 50 nM
[4] = Table I screening results, 150 nM, crude combinatorial amide library
[5] = crude combinatorial urea library, read-out: Inhibition of HUVEC Proliferation % inhibition @ 10 nM
[6] = crude combinatorial urea library, read-out: Inhibition of HUVEC Proliferation % inhibition @ 50 nM
[7] = Inhibition of HUVEC Proliferation, crude combinatorial urea library, read-out: Inhibition @ 50 nM
[8] = table following Table II (untitled), crude combinatorial library
[9] = table following Table II (untitled), crude combinatorial library, read-out: % inhibition @ 10 nM

CNC(=O)Nc1nc(N)c(-c2nc(-c3cccc(NC(=O)c4cc(=O)[nH]c(=O)[nH]4)c3)cs2)s1
inhibition at 0.001 µM [1]: -5%
inhibition at 0.01 µM [2]: -14%

COc1cccc(C(=O)Nc2cc(-c3csc(-c4sc(NC(=O)NCCN(C)C)nc4N)n3)c(F)cc2F)c1
inhibition at 0.05 µM [3]: 63%

CNC(=O)Nc1nc(N)c(-c2nc(-c3cccc(NC(=O)C4CCCC(OC)C4)c3)cs2)s1 (centres unmarked)
inhibition at 0.001 µM [1]: 6%
inhibition at 0.01 µM [2]: 5%

COc1ccc2oc(C(=O)Nc3cccc(-c4csc(-c5sc(Nc6cc(OC)c(OC)c(OC)c6)nc5N)n4)c3)cc2c1
inhibition at 0.15 µM [4]: 7%

CNC(=O)Nc1nc(N)c(-c2nc(-c3cccc(NC(=O)C4C[C@@H]5C[C@H]4CCC5O)c3)cs2)s1 (some centres unmarked)
inhibition at 0.001 µM [1]: 14%
inhibition at 0.01 µM [2]: 21%

COc1cccc(C(=O)Nc2cc(-c3csc(-c4sc(NC(=O)N[C@@H](CC(N)=O)C(N)=O)nc4N)n3)c(F)cc2F)c1
inhibition at 0.05 µM [3]: 32%

COc1cccc(C(=O)Nc2cccc(-c3csc(-c4sc(NC(=O)NCC(C)O)nc4N)n3)c2)c1 (centres unmarked)
inhibition at 0.01 µM [5]: 7%
inhibition at 0.05 µM [6]: 126%

COc1cccc(C(=O)Nc2cc(-c3csc(-c4sc(NC(=O)NC5CCS(=O)(=O)C5)nc4N)n3)c(F)cc2F)c1 (centres unmarked)
inhibition at 0.05 µM [3]: 100%

COc1cccc(C(=O)Nc2cc(-c3noc(-c4sc(NC(=O)NCCN5CCNC5=O)nc4N)n3)c(F)cc2F)c1
inhibition at 0.05 µM [7]: -2%

COc1ccc2[nH]c(C(=O)Nc3cccc(-c4csc(-c5sc(Nc6cc(OC)c(OC)c(OC)c6)nc5N)n4)c3)cc2c1
inhibition at 0.15 µM [4]: 1%

COc1cccc(C(=O)Nc2cccc(-c3csc(-c4sc(NC(=O)NCCCN5CCOCC5)nc4N)n3)c2)c1
inhibition at 0.01 µM [5]: 19%
inhibition at 0.05 µM [6]: 83%

CNC(=O)Nc1nc(N)c(-c2nc(-c3cccc(NC(=O)/C=C/C(=O)NCC4CC4)c3)cs2)s1
inhibition at 0.001 µM [1]: 10%
inhibition at 0.01 µM [2]: 1%

CNC(=O)Nc1nc(N)c(-c2nc(-c3cccc(NC(=O)C4CC(=O)OC4(C)C)c3)cs2)s1 (centres unmarked)
inhibition at 0.001 µM [1]: 2%
inhibition at 0.01 µM [2]: -10%

COc1cc(Nc2nc(N)c(-c3nc(-c4cc(NC(=O)C5CCOC5)ccc4C)no3)s2)cc(OC)c1OC (centres unmarked)
inhibition at 0.001 µM [8]: 16%
inhibition at 0.01 µM [9]: 6%

COc1cc(Nc2nc(N)c(-c3nc(-c4cccc(NC(=O)c5sc(C)nc5C)c4)cs3)s2)cc(OC)c1OC [drawing 894]
inhibition at 0.15 µM [4]: 19%

COc1cccc(C(=O)Nc2cc(-c3csc(-c4sc(NC(=O)NCC(O)CO)nc4N)n3)c(F)cc2F)c1 (centres unmarked)
inhibition at 0.05 µM [3]: 74%

CCN1CC(NC(=O)Nc2nc(N)c(-c3nc(-c4cccc(NC(=O)c5cccc(OC)c5)c4)cs3)s2)CN1CC
inhibition at 0.01 µM [5]: -24%
inhibition at 0.05 µM [6]: 45%

COc1cccc(C(=O)Nc2cc(-c3csc(-c4sc(NC(=O)NCCC(=O)O)nc4N)n3)c(F)cc2F)c1
inhibition at 0.05 µM [3]: 66%

CCOC(=O)/C=C/C(=O)Nc1cccc(-c2csc(-c3sc(Nc4cc(OC)c(OC)c(OC)c4)nc3N)n2)c1
inhibition at 0.15 µM [4]: 27%

COCCNC(=O)Nc1nc(N)c(-c2nc(-c3cccc(NC(=O)c4cccc(OC)c4)c3)cs2)s1
inhibition at 0.01 µM [5]: 35%
inhibition at 0.05 µM [6]: 32%

COc1cccc(C(=O)Nc2cc(-c3noc(-c4sc(NC(=O)NCCN5CCCCC5)nc4N)n3)c(F)cc2F)c1
inhibition at 0.05 µM [7]: 78%

COc1cccc(C(=O)Nc2cccc(-c3csc(-c4sc(NC(=O)NCCCN5CCCC5)nc4N)n3)c2)c1
inhibition at 0.01 µM [5]: 1%
inhibition at 0.05 µM [6]: 101%

COc1cccc(C(=O)Nc2cc(-c3noc(-c4sc(NC(=O)NCCCN5CCCCC5C)nc4N)n3)c(F)cc2F)c1 (centres unmarked)
inhibition at 0.05 µM [7]: 96%

COc1cccc(C(=O)Nc2cccc(-c3csc(-c4sc(NC(=O)N[C@@H](CC(N)=O)C(N)=O)nc4N)n3)c2)c1
inhibition at 0.01 µM [5]: 19%
inhibition at 0.05 µM [6]: 23%

CNC(=O)Nc1nc(N)c(-c2nc(-c3cccc(NC(=O)[C@@H]4C[C@H](C)[C@H](C)[C@@H]4C)c3)cs2)s1
inhibition at 0.001 µM [1]: -11%
inhibition at 0.01 µM [2]: -21%

CNC(=O)Nc1nc(N)c(-c2nc(-c3cccc(NC(=O)c4cc(C)n[nH]4)c3)cs2)s1
inhibition at 0.001 µM [1]: 32%
inhibition at 0.01 µM [2]: -22%

COc1cc(Nc2nc(N)c(-c3nc(-c4cccc(NC(=O)C5Cc6ccccc65)c4)cs3)s2)cc(OC)c1OC (centres unmarked)
inhibition at 0.15 µM [4]: 56%

COc1cccc(C(=O)Nc2cccc(-c3csc(-c4sc(NC(=O)NCC5CCCO5)nc4N)n3)c2)c1 (centres unmarked)
inhibition at 0.01 µM [5]: 46%
inhibition at 0.05 µM [6]: 87%

CNC(=O)Nc1nc(N)c(-c2nc(-c3cccc(NC(=O)c4cc(C)nn4C)c3)cs2)s1
inhibition at 0.001 µM [1]: 10%
inhibition at 0.01 µM [2]: 39%

COc1cc(Nc2nc(N)c(-c3nc(-c4cc(NC(=O)[C@H]5C[C@@H](C)[C@@H](C)[C@H]5C)ccc4C)no3)s2)cc(OC)c1OC
inhibition at 0.001 µM [8]: -21%
inhibition at 0.01 µM [9]: 5%

COc1cc(Nc2nc(N)c(-c3nc(-c4cccc(NC(=O)c5cc6ccccc6o5)c4)cs3)s2)cc(OC)c1OC [drawing 844]
inhibition at 0.15 µM [4]: 40%

COc1cc(Nc2nc(N)c(-c3nc(-c4cccc(NC(=O)c5c(-c6ccccc6)noc5C)c4)cs3)s2)cc(OC)c1OC
inhibition at 0.15 µM [4]: 5%

COc1cc(Nc2nc(N)c(-c3nc(-c4cccc(NC(=O)CC5CCCCC5)c4)cs3)s2)cc(OC)c1OC
inhibition at 0.15 µM [4]: 3%

COc1cccc(C(=O)Nc2cc(-c3csc(-c4sc(NC(=O)NCC(F)(F)F)nc4N)n3)c(F)cc2F)c1
inhibition at 0.05 µM [3]: 2%

COc1cccc(C(=O)Nc2cc(-c3csc(-c4sc(NC(=O)NCCN5CCNCC5)nc4N)n3)c(F)cc2F)c1
inhibition at 0.05 µM [3]: 46%

COc1cc(Nc2nc(N)c(-c3nc(-c4cccc(NC(=O)CC(C)c5ccccc5)c4)cs3)s2)cc(OC)c1OC (centres unmarked)
inhibition at 0.15 µM [4]: 26%

CCCCN(CC)CCNC(=O)Nc1nc(N)c(-c2nc(-c3cccc(NC(=O)c4cccc(OC)c4)c3)cs2)s1
inhibition at 0.01 µM [5]: 1%
inhibition at 0.05 µM [6]: 10%

COc1cccc(C(=O)Nc2cc(-c3csc(-c4sc(NC(=O)NCc5ccc(S(N)(=O)=O)cc5)nc4N)n3)c(F)cc2F)c1
inhibition at 0.05 µM [3]: 77%

CNC(=O)Nc1nc(N)c(-c2nc(-c3cccc(NC(=O)Cc4cccnc4)c3)cs2)s1
inhibition at 0.001 µM [1]: -7%
inhibition at 0.01 µM [2]: -27%

COc1cc(Nc2nc(N)c(-c3nc(-c4cccc(NC(=O)Cn5cnc6c5c(=O)n(C)c(=O)n6C)c4)cs3)s2)cc(OC)c1OC
% inhibition @ 150 nM [4]: 0%

COc1ccccc1/C=C/C(=O)Nc1ccc(C)c(-c2noc(-c3sc(Nc4cc(OC)c(OC)c(OC)c4)nc3N)n2)c1
inhibition at 0.001 µM [8]: 13%
inhibition at 0.01 µM [9]: 31%

COc1cccc(C(=O)Nc2cc(-c3noc(-c4sc(NC(=O)NCCCN5CCCCCC5)nc4N)n3)c(F)cc2F)c1
inhibition at 0.05 µM [7]: 21%

CNC(=O)Nc1nc(N)c(-c2nc(-c3cccc(NC(=O)C4CCCO4)c3)cs2)s1 (centres unmarked)
inhibition at 0.001 µM [1]: 183%
inhibition at 0.01 µM [2]: -33%

COc1cc(Nc2nc(N)c(-c3nc(-c4cccc(NC(=O)c5ccco5)c4)cs3)s2)cc(OC)c1OC
inhibition at 0.15 µM [4]: 15%

CNC(=O)Nc1nc(N)c(-c2nc(-c3cccc(NC(=O)[C@@H]4CCC[C@@H]4O)c3)cs2)s1
inhibition at 0.001 µM [1]: 15%
inhibition at 0.01 µM [2]: 13%

CNC(=O)Nc1nc(N)c(-c2nc(-c3cccc(NC(=O)C(O)CC(C)C)c3)cs2)s1 (centres unmarked)
inhibition at 0.001 µM [1]: -18%
inhibition at 0.01 µM [2]: 2%

CNC(=O)CNC(=O)Nc1nc(N)c(-c2nc(-c3cccc(NC(=O)c4cccc(OC)c4)c3)cs2)s1
inhibition at 0.01 µM [5]: 42%
inhibition at 0.05 µM [6]: 23%

COc1cc(Nc2nc(N)c(-c3nc(-c4cc(NC(=O)C5CCCN5C(C)=O)ccc4C)no3)s2)cc(OC)c1OC (centres unmarked)
inhibition at 0.001 µM [8]: -13%
inhibition at 0.01 µM [9]: -24%

COc1cccc(C(=O)Nc2cccc(-c3csc(-c4sc(NC(=O)NC5CCN(Cc6ccccc6)CC5)nc4N)n3)c2)c1
inhibition at 0.01 µM [5]: -22%
inhibition at 0.05 µM [6]: 23%

COc1cccc(C(=O)Nc2cccc(-c3csc(-c4sc(NC(=O)NCCCN5CCCCC5)nc4N)n3)c2)c1
inhibition at 0.01 µM [5]: 15%
inhibition at 0.05 µM [6]: 49%

COc1cc(Nc2nc(N)c(-c3nc(-c4cccc(NC(=O)COc5ccccc5)c4)cs3)s2)cc(OC)c1OC [drawing 868]
inhibition at 0.15 µM [4]: 10%

COc1cc(CC(=O)Nc2cccc(-c3csc(-c4sc(Nc5cc(OC)c(OC)c(OC)c5)nc4N)n3)c2)cc(OC)c1OC
inhibition at 0.15 µM [4]: 29%

COc1cccc(C(=O)Nc2cc(-c3csc(-c4sc(NC(=O)NCCc5c[nH]cn5)nc4N)n3)c(F)cc2F)c1
inhibition at 0.05 µM [3]: 55%
